Experimental findings from patent US12458688B2, “Epitopes” (Scancell Limited, priority 2018, dated 2025) are described below.

Where no end group is shown, it is not given here. [ ]: non-standard residue; d: D form. hCit = NC(=O)NCCCC[C@H](N)C(=O)O

The test system of assay [1] is B16HHDII/iDP4 tumour cells. Description: Tumour therapy, B16HHDII/iDP4 tumour in HHDII/DP4 mice. The format is in vivo, mouse. Particulars: peptide with CpG/MPLA. The protocol: For tumour challenge experiments, mice were challenged with B16F1 cells s.c. on the right flank 3 days before primary immunisation (unless stated otherwise) and subsequently immunised as above. Tumour implants were carried out at dose of 2.5×10^4 cells/mouse for B16F1, 2.5×10^4 cells/mouse for B16F1 DR4, 4×10^5 cells/mouse for B16F1 HHDII/DP4, 5×10^5 cells/mouse for B16 HHDII/DR1, 1×10^5 cells/mouse for B16F1 HHDII/inducibleDP4, 5×10^4 cells/mouse for B16F1 inducible DR4. For studies involving depletion antibodies, 250 μg anti-mouse Ly6C antibody (clone Monts, BioXcell) was administered i.p. on days 8, 10, 12, 15, 17 and 19. 400 μg anti-mouse Ly6G antibody (clone 1A8, Biolegend) was administered i.p. on day 8 followed by 250 μg on days 11, 15 and 18. Anti-human CD4 antibody (clone OKT4, BioXcell) or anti-mouse CD8 antibody (clone 2.43, BioXcell) were administered at 500 μg dose on day 4 followed by 300 μg dose on days 8 and 11. Tumour growth was monitored twice weekly and mice were humanely euthanised once tumour reached ≥15 mm in diameter.
To provide further evidence for the role of CD4 T cell responses in tumour therapy HHDII/DP4 mice were implanted with B16HHDII/iDP4 tumour cells on day 1 and then immunised with peptides and CpG/MPLA on days 4, 8 and 11. Concurrent with peptide immunisation mice were also treated with CD4 or CD8 depleting antibody and tumour growth monitored. […] To show whether cyanate/isocyanic acid can cross cell membranes B16F1 melanoma cell line was cultured in vitro in the presence or absence of potassium cyanate which is in dynamic equilibrium with isocyanic acid. As a positive control lysates were also produced from in vitro cultured B16F1 cells and then treated with or without KCNO.

Assay [2] relates to splenocytes from immunised mice. Description: Ex vivo IL-17 ELISpot after peptide immunisation. The conditions noted are these: mouse, in vivo. How it is done: (§1) C57BL/6 mice (Charles River, UK), HLA-DR4 mice (Model #4149, Taconic, USA), HLA-A2/DR1 (HHDII/DR1, Pasteur Institute), HLA-A2.1+/+HLA-DP4+/+hCD4+/+ (HLA-HHDII/DP4) transgenic mice (EM: 02221, European Mouse Mutant Archive) described in patent WO2013/017545 A1 (EMMA repository, France) were used, aged between 8 and 12 weeks. Peptides were dissolved in PBS to 1 mg/ml and then emulsified (a series of dilutions) with CpG ODN 1826 and MPLA 6 μg/mouse of each (Invivogen, UK). Peptides (25 μg/mouse) were injected subcutaneously at the base of the tail. Mice were immunised at days 1, 7 and 14 for peptide immunisation. Spleens were removed for analysis at day 21 unless stated otherwise.
(§2) ELISpot assays were performed using murine IFNγ, IL-17 and IL-10 capture and detection reagents according to the manufacturer's instructions (Mabtech, Sweden). In brief, anti-IFNγ, IL-17 and IL-10 specific antibodies were coated onto wells of 96-well Immobilin-P plate. […] After incubation, captured IFNγ, IL-10 and IL-17 were detected by biotinylated anti-IFNγ, IL-10 and IL-17 antibodies and developed with a streptavidin alkaline phosphatase and chromogenic substrate. […] Spots were analysed and counted using an automated plate reader (Cellular Technologies Ltd).

Assay [3] deals with tumour cells that were not able to express HLA-DR4. The experiment in a line: Tumour therapy, B16F1 lacking DR4 in HLA-DR4 mice. Particulars: tumour without HLA-DR4. It is filed as in vivo, mouse. The source says:
(§3) This is also true in the ALDOA immunised mice.

Assay [4] concerns splenocytes from immunised mice. The experiment in a line: Ex vivo IL-10 ELISpot after peptide immunisation. The conditions noted are these: mouse, in vivo. How it is done:
as §1, §2

Another assay deals with B16F1 DR4 tumours. The experiment in a line: Tumour therapy, B16F1 DR4 tumour in DR4 mice. Particulars: peptide with CpG/MPLA days 4, 11, 18. The format is in vivo, mouse. The source says:
To determine if the epitopes that stimulate T cell responses are presented on MHC-II within the tumour environment, our homocitrullinated peptides were checked for tumour therapy in B16 tumour models. Mice were implanted with tumour cells on day 1 and then immunised with peptides and CpG/MPLA on days 4, 11 and 18.
HHDII/DR1 (FIG. 19a) or DR4 (FIG. 19b) transgenic mice were challenged with B16F1 HHDII/DR1 or B16F1 DR4 tumours respectively prior to immunisation with vimentin 116-135Hcit peptide and tumour growth and survival were monitored.

A further assay relates to C57BI/6 mice. Description: Ex vivo IFNγ ELISpot after peptide immunisation, C57Bl/6 mice. It is filed as in vivo, mouse. How it is done:
as §1, §2
Significant IFNγ responses were detected to peptide vimentin 116-135 Hcit. […]

The subject of assay [5] is B16F1 HHDII cells that cannot express DR1. The experiment in a line: Tumour therapy, B16F1 HHDII lacking DR1 in HHDII/DR1 mice. It is filed as in vivo, mouse. Particulars: tumour without DR1.
From the text: as §3

The test system of assay [6] is IFNγ-inducible B16 DR4 tumour. Description: Tumour therapy, IFNγ-inducible B16 DR4 tumour in HLA-DR4 mice. It is filed as in vivo, mouse. The conditions noted are these: peptide with CpG/MPLA. The source says:
To mimic the naturally occurring tumour, we engineered B16F1 cells to express HLA-DR4 under control of mouse IFNγ-inducible promoter. […] HLA-DR4 mice were then implanted with this IFNγ-inducible B16 DR4 tumour followed by immunisation with vimentin 116-135Hcit peptide (FIG. 19e).

Consider “LREYQELMNV-hcit-LALDIEI (LREYQELMNV[hCit]LALDIEI) [Cyk8 371-388 Hcit]”, for which the “tumour growth / survival vs control” value in assay [1] is on record as “Significant prevention of tumour growth”.
As to “NYID-Hcit-VRFLEQQN-Hcit-ILLAEL (NYID[hCit]VRFLEQQN[hCit]ILLAEL) [Vimentin 116-135 Hcit]”, the “IL-17 ELISpot response” value in assay [2] is “no production”. Moreover, the survival rate in assay [3] is listed as 20%. Further, in assay [4], the “IL-10 ELISpot response” value was “no production”. Moreover, the overall survival in the assay with B16F1 DR4 tumours amounted to 70%. In addition, the “IFNγ ELISpot response” value in the assay on C57BI/6 mice is “no IFNγ responses were observed”. For the same substance, in assay [5], the survival vs control result is recorded as “no survival advantage”. In assay [6], the survival came out at 40%.
